Source: patent US4791215A, “Derivatives of glutamic acid and aspartic acid” (priority 1984, dated 1988)

How the values were obtained:
[1] = system: activity of analgesic drugs; test: Hot-plate test, potentiation of analgesic drugs (Experiment 2); type: in vivo, rats
Procedure: Experiment No. 2: Hot-plate test
The method is that described by Eddy et al. (J. Pharmac. Exp. Ther. 107, 385 (1953)).
Groups of five male rats having a weight of about 150 g, and which have not fasted, are used.
The animals are placed on a metal plate on the bottom of a transparent cylinder, which is heated to 55°±1° C. by an azeotropic boiling mixture (acetone-ethyl formate 1:1).
The reaction time is defined as the interval which passes between the moment at which the animal is placed on the hot-plate and the moment at which it either licks its feet or tries to jump out of the cylinder. The control reaction time is measured 10 and 5 minutes before administration of the drugs and 10, 20, 30, 45, 60 and 90 minutes afterwards. The animals are left on the plate for a maximum period of 30 seconds.
The response to the administration of the product is considered positive if at least a doubling of the normal reaction time is seen. The results obtained are given in Tables 2a and 2b which record the groups treated, the doses administered and the stay times on the plate expressed as the number of positive responses over the number treated.

[2] = system: CCK-8 induced contraction of guinea pig gall bladder; test: Anti-CCK activity on gall bladder strips in vitro; details: CCK-8 10 ng/ml
Summary of the method: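 Longitudinal guinea pig gall bladder strips in Krebs at 32 °C, gassed with O2/CO2 95:5, were contracted with 10 ng/ml CCK-8. Isometric force was recorded across several compound concentrations, and ED50 was taken as the μg/ml concentration antagonising 50% of the CCK contraction.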

Compound: CCCN(CCC)C(=O)C(CCC(=O)O)NC(=O)c1cccc(C#N)c1 (stereo not shown) [Compound C-20]
- TOTAL positives ([1]; ASA 100 + compound 5 mg/kg i.p.): 12 x/30
- positive responses over number treated ([1]; ASA 100 + compound 5 mg/kg i.p., 10'): 2/5
- positive responses over number treated ([1]; ASA 100 + compound 5 mg/kg i.p., 20'): 2/5
- positive responses over number treated ([1]; ASA 100 + compound 5 mg/kg i.p., 30'): 2/5
- positive responses over number treated ([1]; ASA 100 + compound 5 mg/kg i.p., 45'): 3/5
- positive responses over number treated ([1]; ASA 100 + compound 5 mg/kg i.p., 60'): 3/5
- positive responses over number treated ([1]; ASA 100 + compound 5 mg/kg i.p., 90'): 0/5
- TOTAL positives ([1]; ASA 100 + compound 20 mg/kg i.p.): 17 x/30
- positive responses over number treated ([1]; ASA 100 + compound 20 mg/kg i.p., 10'): 1/5
- positive responses over number treated ([1]; ASA 100 + compound 20 mg/kg i.p., 20'): 3/5
- positive responses over number treated ([1]; ASA 100 + compound 20 mg/kg i.p., 30'): 3/5
- positive responses over number treated ([1]; ASA 100 + compound 20 mg/kg i.p., 45'): 3/5
- positive responses over number treated ([1]; ASA 100 + compound 20 mg/kg i.p., 60'): 4/5
- positive responses over number treated ([1]; ASA 100 + compound 20 mg/kg i.p., 90'): 3/5
- TOTAL positives ([1]; ASA 100 + compound 50 mg/kg i.p.): 22 x/30
- positive responses over number treated ([1]; ASA 100 + compound 50 mg/kg i.p., 10'): 3/5
- positive responses over number treated ([1]; ASA 100 + compound 50 mg/kg i.p., 20'): 2/5
- positive responses over number treated ([1]; ASA 100 + compound 50 mg/kg i.p., 30'): 5/5
- positive responses over number treated ([1]; ASA 100 + compound 50 mg/kg i.p., 45'): 5/5
- positive responses over number treated ([1]; ASA 100 + compound 50 mg/kg i.p., 60'): 4/5
- positive responses over number treated ([1]; ASA 100 + compound 50 mg/kg i.p., 90'): 3/5
- effect on analgesic activity of propoxyphene ([1]; compound 3 mg/kg i.p.): can double the analgesic activity of propoxyphene
- TOTAL positives ([1]; propoxyphene 15 + compound 1 mg/kg i.p.): 16 x/30
- positive responses over number treated ([1]; propoxyphene 15 + compound 1 mg/kg i.p., 10'): 2/5
- positive responses over number treated ([1]; propoxyphene 15 + compound 1 mg/kg i.p., 20'): 2/5
- positive responses over number treated ([1]; propoxyphene 15 + compound 1 mg/kg i.p., 30'): 3/5
- positive responses over number treated ([1]; propoxyphene 15 + compound 1 mg/kg i.p., 45'): 3/5
- positive responses over number treated ([1]; propoxyphene 15 + compound 1 mg/kg i.p., 60'): 3/5
- positive responses over number treated ([1]; propoxyphene 15 + compound 1 mg/kg i.p., 90'): 3/5
- TOTAL positives ([1]; propoxyphene 15 + compound 3 mg/kg i.p.): 25 x/30
- positive responses over number treated ([1]; propoxyphene 15 + compound 3 mg/kg i.p., 10'): 3/5
- positive responses over number treated ([1]; propoxyphene 15 + compound 3 mg/kg i.p., 20'): 5/5
- positive responses over number treated ([1]; propoxyphene 15 + compound 3 mg/kg i.p., 30'): 4/5
- positive responses over number treated ([1]; propoxyphene 15 + compound 3 mg/kg i.p., 45'): 5/5
- positive responses over number treated ([1]; propoxyphene 15 + compound 3 mg/kg i.p., 60'): 4/5
- positive responses over number treated ([1]; propoxyphene 15 + compound 3 mg/kg i.p., 90'): 4/5
- TOTAL positives ([1]; propoxyphene 15 + compound 10 mg/kg i.p.): 27 x/30
- positive responses over number treated ([1]; propoxyphene 15 + compound 10 mg/kg i.p., 10'): 4/5
- positive responses over number treated ([1]; propoxyphene 15 + compound 10 mg/kg i.p., 20'): 5/5
- positive responses over number treated ([1]; propoxyphene 15 + compound 10 mg/kg i.p., 30'): 5/5
- positive responses over number treated ([1]; propoxyphene 15 + compound 10 mg/kg i.p., 45'): 5/5
- positive responses over number treated ([1]; propoxyphene 15 + compound 10 mg/kg i.p., 60'): 5/5
- positive responses over number treated ([1]; propoxyphene 15 + compound 10 mg/kg i.p., 90'): 3/5
- dose of maximum effect (propoxyphene potentiation) ([1]; with propoxyphene): 10 mg/kg i.p.
- ED50 (concentration antagonising 50% of contracting effect of CCK-8) [2]: > 200 µg/mL

Compound: CCCN(CCC)C(=O)C(CCC(=O)O)NC(=O)c1ccc(C(C)C)cc1 (stereo not shown) [Compound C-36]
- TOTAL positives ([1]; ASA 100 + compound 10 mg/kg i.p.): 10 X/30
- positive responses over number treated ([1]; ASA 100 + compound 10 mg/kg i.p., 10'): 1/5
- positive responses over number treated ([1]; ASA 100 + compound 10 mg/kg i.p., 20'): 2/5
- positive responses over number treated ([1]; ASA 100 + compound 10 mg/kg i.p., 30'): 3/5
- positive responses over number treated ([1]; ASA 100 + compound 10 mg/kg i.p., 45'): 2/5
- positive responses over number treated ([1]; ASA 100 + compound 10 mg/kg i.p., 60'): 1/5
- positive responses over number treated ([1]; ASA 100 + compound 10 mg/kg i.p., 90'): 1/5
- TOTAL positives ([1]; ASA 100 + compound 30 mg/kg i.p.): 14 X/30
- positive responses over number treated ([1]; ASA 100 + compound 30 mg/kg i.p., 10'): 1/5
- positive responses over number treated ([1]; ASA 100 + compound 30 mg/kg i.p., 20'): 2/5
- positive responses over number treated ([1]; ASA 100 + compound 30 mg/kg i.p., 30'): 2/5
- positive responses over number treated ([1]; ASA 100 + compound 30 mg/kg i.p., 45'): 3/5
- positive responses over number treated ([1]; ASA 100 + compound 30 mg/kg i.p., 60'): 3/5
- positive responses over number treated ([1]; ASA 100 + compound 30 mg/kg i.p., 90'): 3/5
- TOTAL positives ([1]; ASA 100 + compound 100 mg/kg i.p.): 20 X/30
- positive responses over number treated ([1]; ASA 100 + compound 100 mg/kg i.p., 10'): 3/5
- positive responses over number treated ([1]; ASA 100 + compound 100 mg/kg i.p., 20'): 3/5
- positive responses over number treated ([1]; ASA 100 + compound 100 mg/kg i.p., 30'): 4/5
- positive responses over number treated ([1]; ASA 100 + compound 100 mg/kg i.p., 45'): 4/5
- positive responses over number treated ([1]; ASA 100 + compound 100 mg/kg i.p., 60'): 4/5
- positive responses over number treated ([1]; ASA 100 + compound 100 mg/kg i.p., 90'): 2/5
- TOTAL positives ([1]; methadone 1 + compound 0.3 mg/kg i.p.): 2 X/30
- positive responses over number treated ([1]; methadone 1 + compound 0.3 mg/kg i.p., 10'): 2/5
- positive responses over number treated ([1]; methadone 1 + compound 0.3 mg/kg i.p., 20'): 2/5
- positive responses over number treated ([1]; methadone 1 + compound 0.3 mg/kg i.p., 30'): 3/5
- positive responses over number treated ([1]; methadone 1 + compound 0.3 mg/kg i.p., 45'): 3/5
- positive responses over number treated ([1]; methadone 1 + compound 0.3 mg/kg i.p., 60'): 1/5
- positive responses over number treated ([1]; methadone 1 + compound 0.3 mg/kg i.p., 90'): 1/5
- TOTAL positives ([1]; methadone 1 + compound 1 mg/kg i.p.): 19 X/30
- positive responses over number treated ([1]; methadone 1 + compound 1 mg/kg i.p., 10'): 3/5
- positive responses over number treated ([1]; methadone 1 + compound 1 mg/kg i.p., 20'): 5/5
- positive responses over number treated ([1]; methadone 1 + compound 1 mg/kg i.p., 30'): 4/5
- positive responses over number treated ([1]; methadone 1 + compound 1 mg/kg i.p., 45'): 3/5
- positive responses over number treated ([1]; methadone 1 + compound 1 mg/kg i.p., 60'): 3/5
- positive responses over number treated ([1]; methadone 1 + compound 1 mg/kg i.p., 90'): 1/5
- TOTAL positives ([1]; methadone 1 + compound 3 mg/kg i.p.): 24 X/30
- positive responses over number treated ([1]; methadone 1 + compound 3 mg/kg i.p., 10'): 5/5
- positive responses over number treated ([1]; methadone 1 + compound 3 mg/kg i.p., 20'): 5/5
- positive responses over number treated ([1]; methadone 1 + compound 3 mg/kg i.p., 30'): 3/5
- positive responses over number treated ([1]; methadone 1 + compound 3 mg/kg i.p., 45'): 4/5
- positive responses over number treated ([1]; methadone 1 + compound 3 mg/kg i.p., 60'): 5/5
- positive responses over number treated ([1]; methadone 1 + compound 3 mg/kg i.p., 90'): 2/5
- ED50 (concentration antagonising 50% of contracting effect of CCK-8) [2]: 13.4 µg/mL
